The values below come from patent publication US8623832B2, “Peptide compositions that bind TLR-4” (The Board of Regents of the University of Oklahoma, priority 2011, dated 2014).

For experiment [1], the system named is JAWS II dendritic cells. Briefly: LPS-induced TNF-α release by JAWS II dendritic cells (ELISA). Format: cell-based, mouse. As to conditions: for LPS-induced TNF-α, mean values: post-LPS model. The method, then:
JAWS II dendritic cell culture: The JAWS II dendritic cell line is an immortalized cell line derived from bone marrow of C57BL/6 mice (ATCC, Manassas, Va.). The cells were maintained in Alpha-modified minimum essential medium (Sigma, St Louis, Mo.) supplemented with 20% fetal bovine serum (FBS), 4 mM L-glutamine, 100 U/ml penicillin, 100 μg/ml streptomycin, 50 μg/ml gentamicin (Invitrogen, Grand Island, N.Y.) and 5 ng/ml of recombinant murine granulocyte macrophage-colony stimulating factor (Peprotech, Rocky Hill, N.J.). (Awasthi et al., 2005). The culture medium was replaced with fresh medium every 48 h.
The JAWS II dendritic cells (1 million) were treated with SP-A peptides (1 or 10 μM) with or without E. coli derived LPS (75 ng/ml, highly purified, low protein, Calbiochem, CA). In order to observe the anti-inflammatory properties of the SP-A peptides, the cells were treated with peptides for 1 hour prior to addition of LPS (pre-LPS treatment) or after 4 hours incubation with LPS (Post-LPS treatment). The incubation was continued for a total period of 5 hours. Control cells were treated with vehicle, LPS (75 ng/ml), and/or SP-A peptides (1 and 10 μM) for a period of 5 hours. The cell-free supernatants were collected and stored at −80° C. for further analysis.
Cytokine (TNF-α) measurement: The TNF-α levels were measured in cell-free supernatants of JAWS II dendritic cells treated with LPS with or without SP-A peptides by enzyme linked immunosorbent assay (ELISA) as described earlier (Awasthi and Cox, 2003).
On the technique in general: ELISA stands for enzyme-linked immunosorbent assay.

Experiment [2] concerns TLR4. Briefly: TLR4 expression in JAWS II dendritic cells by immunocytochemistry / confocal microscopy. The format is cell-based, mouse. The protocol: TLR4 expression by immunocytochemistry: The JAWS II-DCs were seeded at a density of 25,000 cells per well of an 8-well chamber slide (Nalge Nunc international, New York, USA). Post-LPS (100 ng/ml) treatment with SPA4 peptide (1 and 10 μM; SEQ ID NO:3) followed, and the cells were fixed for 20 minutes with 3.5% paraformaldehyde prepared in PBS on ice. Permeablization was carried out for 20 minutes on ice with Alpha-MEM medium containing 10% FBS and 0.05% saponin and 10 mM HEPES (Inaba et al., 1998). The cells were washed with PBS supplemented with 1% FBS and 0.05% saponin (wash buffer). Non-specific binding sites were blocked using PBS containing 10% normal mouse serum (Sigma, St Louis, Mo.) for 1 hour at room temperature in a humidified chamber. A rabbit polyclonal antibody to mouse TLR4 (Abcam, Cambridge, Mass.) was added to the cells at a dilution of 1:50 and incubated overnight at 4° C. in a humidified chamber. […]
SPA4 peptide (SEQ ID NO:3) inhibits the LPS-induced TLR4 expression in dendritic cells and SW480 intestinal (colonic) epithelial cells. […] First, it was determined if the SPA4 peptide inhibits LPS-induced expression of TLR4 in these cells. […]

Experiment [3] relates to NF-κB pathway molecules (IKBα, phosphorylated IKBα, p65, phosphorylated p65, RelB, COX-2). In words: Expression of NF-κB pathway molecules in SW480 cell lysates by immunoblotting. Format: cell-based, human. The method, then: Expression of NF-κB pathway molecules by immunoblotting: The expression of NF-κB pathway molecules (inhibitor kappa-Bα: IKBα, phosphorylated IKBα, p65, phosphorylated p65, RelB and COX-2) in SW480 cell-lysates treated with LPS±SPA4 peptide was studied by immunoblotting. For the immunoblotting, 10 μg of total cell-lysate proteins were fractionated on Novex 4-20% Tris-glycine gradient SDS-PAGE gel (Invitrogen, Carlsbad, Calif.) by electrophoresis. Separated proteins were electro-transferred onto a nitrocellulose membrane using iBlot gel transfer device (Invitrogen, Carlsbad, Calif.). The non-specific sites were blocked by incubating the membrane with 7% skimmed milk in Tris-buffered saline with 0.4% TWEEN®-20 (TBST) for 1 hour at room temperature. The blocked membranes were incubated overnight at 4° C. with 1:1000 diluted anti-human antibodies against NF-κB canonical pathway molecules: phosphorylated inhibitor kappa-Bα (IKBα), total-IKBα, p65, RelB (Cell Signaling Technology, Inc., Danvers, Mass.), phosphorylated p65 (Santacruz Biotech, Inc., Santa Cruz, Calif.) and cyclooxygenase-2 (COX-2; Santacruz Biotech, Inc., Santa Cruz, Calif.). The membranes were washed with TBST and incubated at room temperature for 45 minutes with 1:3500 diluted horse-radish peroxidase (HRP)-conjugated-secondary antibody (Sigma-Aldrich, St. Louis, Mo.). The immunoreactive bands were detected by Super Signal West Femto detection reagent (Thermo Fisher Scientific, Barrington, Ill.). In order to ensure equal protein loading in the wells, the membranes were stripped of probing antibodies at 60° C. for 45 minutes using a stripping solution containing 10% SDS, 0.5 M Tris and […] (35 μl/ml), and re-probed with anti-actin antibody (Sigma-Aldrich, MO; 1:1000 in TBST). The immunoblots were imaged using the Ultraquant image acquisition program (UltraLum Inc., Claremont, Calif.). The densitometric readings were obtained for immunoreactive bands with Image J 1.42 q program (NIH, USA). Finally, arbitrary densitometric values for proteins of interest were normalized with those of β-actin.

“Also recorded” adds a separate entry of the source. Where no end group is shown, it is not given here.

For “GDFRYSDGTPVNYTNWYRGE [SPA4, GDFRYSDGT PVNYTNWYRGE]”, in experiment [1] (peptide added after 4 hours LPS 75 ng/ml, both 1 and 10 μM), the “secretion of TNF-α, post-LPS model” value is “inhibited the secretion of TNF-α”. Moreover, the “LPS-induced TNF-α, mean values” in experiment [1] (1 μM peptide) came to 6448 pg/mL. Moreover, the “LPS-induced TNF-α, mean values” in experiment [1] (10 μM peptide) came out at 6101 pg/mL. In experiment [2], the “basal TLR4 expression” value was “reduced the basal TLR4 expression”. For the same sequence, the “LPS-induced TLR4 expression” value in experiment [2] (post-LPS treatment, p<0.05) is recorded as “suppressed significantly; also recorded: reduced LPS-induced TLR4 expression to a basal level”. For the same sequence, in experiment [3] (LPS-challenged), the “expression of RelB” value is listed as “No effect” and the “expression of phosphorylated IKBα” value was “No effect”. In addition, in experiment [3] (LPS-challenged, 5 hours model), the “expression of COX-2, short-term treatment” value was “decrease”; the “expression of phosphorylated p65, short-term treatment” value is given as “decrease”; the “expression of total IKBα, short-term treatment” value is listed as “increase”. In experiment [3] (LPS-challenged, 9 hours model), the “expression of COX-2, long-term treatment” value is reported as “remained low”; the “expression of phosphorylated p65, long-term treatment” value is reported as “remained low”; the “expression of total IKBα, long-term treatment” value was “decreased”. In experiment [3] (no LPS), the “expression of NF-κB signaling molecules, SPA4 peptide alone” value is “did not affect the expression of any of the NF-κB signaling molecules studied, except for COX-2”.
